# Experimental data reported in US12037322B2, “AHR agonists” (Eli Lilly and Company, priority 2021, dated 2024).
# Biological target: T1, hAHR (Homo sapiens, UniProt P35869)
# T1 construct: expressed in transfected cells
# T1 sequence (P35869 11-848): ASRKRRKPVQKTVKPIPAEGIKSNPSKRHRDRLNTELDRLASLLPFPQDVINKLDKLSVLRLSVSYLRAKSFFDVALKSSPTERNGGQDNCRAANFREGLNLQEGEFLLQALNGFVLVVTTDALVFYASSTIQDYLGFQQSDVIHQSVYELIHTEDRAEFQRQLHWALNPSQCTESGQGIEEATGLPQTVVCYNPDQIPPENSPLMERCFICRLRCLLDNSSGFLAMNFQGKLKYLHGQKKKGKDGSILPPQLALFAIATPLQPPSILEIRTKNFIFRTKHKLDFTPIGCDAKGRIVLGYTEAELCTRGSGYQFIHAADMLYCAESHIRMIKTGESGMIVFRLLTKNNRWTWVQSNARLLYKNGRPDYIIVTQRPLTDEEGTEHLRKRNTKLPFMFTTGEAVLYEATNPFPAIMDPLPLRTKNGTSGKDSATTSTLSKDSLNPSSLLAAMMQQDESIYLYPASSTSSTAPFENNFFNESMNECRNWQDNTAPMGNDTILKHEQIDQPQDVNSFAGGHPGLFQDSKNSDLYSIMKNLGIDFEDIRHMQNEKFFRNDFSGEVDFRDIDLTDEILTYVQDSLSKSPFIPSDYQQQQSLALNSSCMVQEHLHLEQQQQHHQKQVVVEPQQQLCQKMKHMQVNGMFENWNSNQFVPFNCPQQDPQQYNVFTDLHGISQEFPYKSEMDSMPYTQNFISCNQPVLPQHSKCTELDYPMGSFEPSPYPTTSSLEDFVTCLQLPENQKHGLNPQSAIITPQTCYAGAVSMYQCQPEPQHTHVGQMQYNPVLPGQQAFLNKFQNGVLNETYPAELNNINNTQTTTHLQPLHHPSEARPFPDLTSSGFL
# Experiment: hAHR nuclear translocation assay
# Format: cell-based
# Conditions: Jump-In T-REx HEK293 cells expressing AhR-EGFP; 45 min incubation; ratio of EGFP intensity in nuclear over cytosol; 20-point curve
# Experimental: Stable cell lines were established using Jump-In™ T-REx™ HEK293 Retargeting Kit (Life Technologies). hAhR cDNA was cloned into the pJTI R4 CMV-TO EGFP vector. The EGFP was cloned to the C-terminal of AHR to form AhR-EGFP chimera. The pJTI R4 CMV-TO AhR-EGFP vector was transfected using FuGENE® HD into Jump-In™ T-REx™ HEK293 cells. Transfected cells were selected using 2.5 mg/ml G418 for 10 to 14 days, then expanded, harvested, and suspended in freeze media (FBS with 8% DMSO) at 2×10^7 cells/mL, and aliquots were stored in liquid nitrogen. One day before the assay date, cells were thawed and resuspended in DMEM with 5% FBS in the presence of 1 μg/mL Doxycycline and plated into ploy-L-Lysine coated […]-384 ULTRA Microplates (Perkin Elmer) at 12,000 to 15,000 cells per well and incubated at 37° C. and 5% CO2 overnight. On the assay date, compound was serially diluted (1:2) into 384-well nunc plates with DMSO using acoustic dispensing (ECHO). The dose response was a 20-point curve. Compound was resuspended in 40 μL of DMEM plus 0.1% BSA. The culture media was damped and 25 μL of DMEM plus 0.1% BSA was added, then 25 μL of compound in DMEM plus 0.1% BSA was added into cell plates. Cells were incubated with compounds at 37° C. and 5% CO2 for 45 min.
# The final DMSO concentration was 0.2%. The media was damped after 45 minutes incubation. The cells were fixed with 40 μL of cold MeOH (−20° C.) for 20 min. The MeOH was damped and 50 μL of DPBS containing 1 μg/mL Hochst was added into the cell plates. The intensity of EGFP was quantitated by using OPERA PHENIX® or Operetta™ high content image system (Perkin Elmer) with 20× Water Objective and five field per well. The ratio of EGFP fluorescent intensity in nuclear over cytosol was analyzed using a 4-parameter nonlinear logistic equation to determine the potency of AhR agonists.
row,Compound,EC50 [nM]
1,"CC1CCc2c1c(O)c(C(=O)Nc1ncco1)c(=O)n2C (single isomer, unassigned) [Example 35, 4-Hydroxy-1,5-dimethyl-N-oxazol-2-yl-2-oxo-6,7-dihydro-5H-cyclopenta[b]pyridine-3-carboxamide]",4.42
2,"CC1CCc2c1c(O)c(C(=O)Nc1ccccn1)c(=O)n2C (single isomer, unassigned) [Example 89, 4-Hydroxy-1,5-dimethyl-2-oxo-N-(2-pyridyl)-6,7-dihydro-5H-cyclopenta[b]pyridine-3-carboxamide]",2.33
3,"CC1CCc2c1c(O)c(C(=O)Nc1ncccc1F)c(=O)n2C (stereo not drawn) [Example 29, N-(3-Fluoro-2-pyridyl)-4-hydroxy-1,5-dimethyl-2-oxo-6,7-dihydro-5H-cyclopenta[b]pyridine-3-carboxamide]",2.23
4,"Cn1c2c(cc(C(=O)Nc3ccccc3)c1=O)CCC2 [Example 108, 1-Methyl-2-oxo-N-phenyl-6,7-dihydro-5H-cyclopenta[b]pyridine-3-carboxamide]",2.5
5,"CC1CCc2c1c(O)c(C(=O)Nc1ccc(C(F)(F)F)nc1)c(=O)n2C (stereo not drawn) [Example 28, 4-Hydroxy-1,5-dimethyl-2-oxo-N-[6-(trifluoromethyl)-3-pyridyl]-6,7-dihydro-5H-cyclopenta[b]pyridine-3-carboxamide]",3.68
6,"CC1CCc2c1cc(C(=O)Nc1ccc(C(F)(F)F)cn1)c(=O)n2C (single isomer, unassigned) [Example 58, 1,5-Dimethyl-2-oxo-N-[5-(trifluoromethyl)-2-pyridyl]-6,7-dihydro-5H-cyclopenta[b]pyridine-3-carboxamide]",3.59
7,"CC(C)CCNC(=O)c1c(O)c2c(n(C)c1=O)CCCC2 [Example 111, 4-Hydroxy-N-isopentyl-1-methyl-2-oxo-5,6,7,8-tetrahydroquinoline-3-carboxamide]",10.3
8,"CC1CCc2c1cc(C(=O)Nc1ccc(C(F)(F)F)nc1)c(=O)n2C (stereo not drawn) [Example 6, 1,5-Dimethyl-2-oxo-N-[6-(trifluoromethyl)-3-pyridyl]-6,7-dihydro-5H-cyclopenta[b]pyridine-3-carboxamide]",4.57
9,"CC1Cc2c(O)c(C(=O)Nc3ccccn3)c(=O)n(C)c2C1 (single isomer, unassigned) [Example 87, 4-Hydroxy-1,6-dimethyl-2-oxo-N-(2-pyridyl)-6,7-dihydro-5H-cyclopenta[b]pyridine-3-carboxamide]",27.3
10,"CC1CCc2c1cc(C(=O)NC1CCCC1)c(=O)n2C (stereo not drawn) [Example 9, N-Cyclopentyl-1,5-dimethyl-2-oxo-6,7-dihydro-5H-cyclopenta[b]pyridine-3-carboxamide]",191
11,"C[C@H]1CCc2c1cc(C(=O)Nc1ncc(Cl)cn1)c(=O)n2C [Example 24, (5S)-N-(5-Chloropyrimidin-2-yl)-1,5-dimethyl-2-oxo-6,7-dihydro-5H-cyclopenta[b]pyridine-3-carboxamide]",2.45
12,"CC1CCc2c1c(O)c(C(=O)Nc1ccc(F)cn1)c(=O)n2C (single isomer, unassigned) [Example 99, N-(5-Fluoro-2-pyridyl)-4-hydroxy-1,5-dimethyl-2-oxo-6,7-dihydro-5H-cyclopenta[b]pyridine-3-carboxamide]",2.12
13,"CC1CCc2c1cc(C(=O)Nc1ccc(F)cn1)c(=O)n2C (single isomer, unassigned) [Example 57, N-(5-Fluoro-2-pyridyl)-1,5-dimethyl-2-oxo-6,7-dihydro-5H-cyclopenta[b]pyridine-3-carboxamide]",1.83
14,"C[C@H]1CCc2c1cc(C(=O)Nc1ccccc1)c(=O)n2C [Example 67, (5S)-1,5-Dimethyl-2-oxo-N-phenyl-6,7-dihydro-5H-cyclopenta[b]pyridine-3-carboxamide]",0.5
15,"CCC1CCc2c1cc(C(=O)Nc1ncc(F)cn1)c(=O)n2C (single isomer, unassigned) [Example 115, 5-ethyl-N-(5-fluoropyrimidin-2-yl)-1-methyl-2-oxo-6,7-dihydro-5H-cyclopenta[b]pyridine-3-carboxamide]",2.96
16,"Cn1c2c(c(O)c(C(=O)Nc3ccccn3)c1=O)CC(C)(C)C2 [Example 42, 4-Hydroxy-1,6,6-trimethyl-2-oxo-N-(2-pyridyl)-5,7-dihydrocyclopenta[b]pyridine-3-carboxamide]",9.41
17,"CC1CCc2c1c(O)c(C(=O)Nc1ncc(C(F)(F)F)cn1)c(=O)n2C (single isomer, unassigned) [Example 97, 4-Hydroxy-1,5-dimethyl-2-oxo-N-[5-(trifluoromethyl)pyrimidin-2-yl]-6,7-dihydro-5H-cyclopenta[b]pyridine-3-carboxamide]",0.709
18,"CC1CCc2cc(C(=O)Nc3ccccc3)c(=O)n(C)c21 (stereo not drawn) [Example 52, 1,7-Dimethyl-2-oxo-N-phenyl-6,7-dihydro-5H-cyclopenta[b]pyridine-3-carboxamide]",6.4
19,"CC1CCc2c1c(O)c(C(=O)Nc1ccsn1)c(=O)n2C (single isomer, unassigned) [Example 38, 4-Hydroxy-N-isothiazol-3-yl-1,5-dimethyl-2-oxo-6,7-dihydro-5H-cyclopenta[b]pyridine-3-carboxamide]",1.01
20,"CC1CCc2c1cc(C(=O)Nc1ccc(C(F)(F)F)cn1)c(=O)n2C (single isomer, unassigned) [Example 59, 1,5-Dimethyl-2-oxo-N-[5-(trifluoromethyl)-2-pyridyl]-6,7-dihydro-5H-cyclopenta[b]pyridine-3-carboxamide]",3.59
21,"CC1Cc2c(O)c(C(=O)Nc3ncccn3)c(=O)n(C)c2C1 (single isomer, unassigned) [Example 83, 4-Hydroxy-1,6-dimethyl-2-oxo-N-pyrimidin-2-yl-6,7-dihydro-5H-cyclopenta[b]pyridine-3-carboxamide]",233
22,"COc1cnc(NC(=O)c2c(O)c3c(n(C)c2=O)CCC3C)nc1 (single isomer, unassigned) [Example 102, 4-Hydroxy-N-(5-methoxypyrimidin-2-yl)-1,5-dimethyl-2-oxo-6,7-dihydro-5H-cyclopenta[b]pyridine-3-carboxamide]",2.59
23,"CC1CCc2c1cc(C(=O)Nc1ccc(C(F)(F)F)cn1)c(=O)n2C (stereo not drawn) [Example 4, 1,5-Dimethyl-2-oxo-N-[5-(trifluoromethyl)-2-pyridyl]-6,7-dihydro-5H-cyclopenta[b]pyridine-3-carboxamide]",1.82
24,"CC1Cc2c(O)c(C(=O)Nc3ncccn3)c(=O)n(C)c2C1 (single isomer, unassigned) [Example 84, 4-Hydroxy-1,6-dimethyl-2-oxo-N-pyrimidin-2-yl-6,7-dihydro-5H-cyclopenta[b]pyridine-3-carboxamide]",8.67
25,"CC1CCc2c1c(O)c(C(=O)Nc1cnsc1)c(=O)n2C (single isomer, unassigned) [Example 41, 4-Hydroxy-N-isothiazol-4-yl-1,5-dimethyl-2-oxo-6,7-dihydro-5H-cyclopenta[b]pyridine-3-carboxamide]",2.65
26,"Cn1c2c(cc(C(=O)Nc3ncccn3)c1=O)CCCC2 [Example 103, 1-Methyl-2-oxo-N-pyrimidin-2-yl-5,6,7,8-tetrahydroquinoline-3-carboxamide]",27
27,"CC1CCc2c1c(O)c(C(=O)Nc1ncco1)c(=O)n2C (single isomer, unassigned) [Example 34, 4-Hydroxy-1,5-dimethyl-N-oxazol-2-yl-2-oxo-6,7-dihydro-5H-cyclopenta[b]pyridine-3-carboxamide]",7.46
